Assay [1] addresses Human immunodeficiency virus type 1 reverse transcriptase (Human immunodeficiency virus 1) (UniProt Q72547). Kind of assay: In vitro inhibition of wild type resistant reverse transcriptase at a concentration of 10 uM.
Assay [2] shares this target. Kind of assay: In vitro inhibition of wild type resistant reverse transcriptase at a concentration of 1 uM.
Assay [3] deals with Human immunodeficiency virus type 1 reverse transcriptase (Human immunodeficiency virus 1), Q72547 [P236L]. Kind of assay: In vitro inhibition of mutant P236L reverse transcriptase at a concentration of 10 uM.
Assay [4] addresses Human immunodeficiency virus type 1 reverse transcriptase (Human immunodeficiency virus 1) (UniProt Q72547). The assay is described as follows: In vitro inhibition of wild type resistant reverse transcriptase at a concentration of 50 uM.
In assay [5] the target is Human immunodeficiency virus type 1 reverse transcriptase (Human immunodeficiency virus 1, UniProt Q72547). The assay is described as follows: In vitro ability to inhibit wild type resistant (WT) reverse transcriptase.
Assay [6] relates to Human immunodeficiency virus type 1 reverse transcriptase (Human immunodeficiency virus 1), Q72547 [P236L]. The assay is described as follows: In vitro inhibition of mutant P236L reverse transcriptase at a concentration of 1 uM.
Assay [7] has the same test system. Kind of assay: In vitro Inhibition of mutant P236L reverse transcriptase at a concentration of 50 uM.
The target in assay [8] is Human immunodeficiency virus type 1 reverse transcriptase (Human immunodeficiency virus 1, UniProt Q72547, P236L). Kind of assay: In vitro ability to inhibit mutant P236L reverse transcriptase.
Assay [9] is described as follows: Cytotoxic concentration was determined. The class given is functional.
Assay [10] can be described thus: Effective dose for inhibition of viral replication in cell culture […]. The assay is classed as functional. The conditions noted are these: read-out: ED50 (the source's name).

Counter-ions that a name gives are not always drawn.

In the case of `Cc1nn(-c2ccccc2)c(-c2ccccc2)c1CC#N`, the inhibition (usually how much of the control response was suppressed) in [1] was found to be 71%; in assay [2], 37%; in [3] it was 77%; in assay [4], 90%; in assay [6], 47%; in assay [7], 93%. For the same compound, the IC50 (commonly the concentration that gives 50% inhibition) in assay [5] is 2310 nM; in [8], 1140 nM. In assay [9], the CC50 (as a rule, the concentration at which the toxic effect on the cells reaches its halfway point) was more than 10000 nM. In addition, the EC50 in [10] worked out at 100 nM.

`CC#Cc1c(C)nn(-c2ccccc2)c1-c1ccccc1`: the inhibition in assay [1] is 37%; in assay [2], 0%; in [3], 80%; in assay [4], 72%; in assay [6] it was 38%; in [7], 93%. The IC50 in assay [5] was found to be 13400 nM; in assay [8], 1540 nM.

Turning to `CCc1c(CC(=O)OC)nn(-c2ccccc2)c1-c1ccccc1`, the inhibition in assay [1] amounted to 20%; in [2], 5%; in assay [3], 41%; in assay [4] it was 34%; in [6], 21%; in assay [7], 55%.

Regarding `Cc1nn(-c2ccccc2)c(-c2ccccc2)c1CC(N)=O`, the inhibition in [1] was 36%; in [2], 11%; in [3] it was 0%; in assay [4] it was 48%; in [6], 0%; in [7] it was 29%.

Turning to `CCc1c(CC(=O)NC)nn(-c2ccccc2)c1-c1ccccc1`, the inhibition was determined as 3% in [1]; 1% in assay [2]; 8% in [3]; 7% in assay [4]; 6% in [6]; 12% in [7].

Turning to `CC(C)Nc1cccnc1N1CCN(C(=O)c2cc3cc(NS(C)(=O)=O)ccc3[nH]2)CC1` [DELAVIRDINE MESYLATE], in assay [9], the CC50 was more than 10000 nM. In addition, the EC50 in [10] was 0.1 nM.

`Cc1nn(-c2ccccc2)c(-c2ccccc2)c1CCO`: the inhibition was found to be 0% in assay [1]; 0% in [2]; 8% in assay [3]; 0% in [4]; 12% in assay [6]; 28% in assay [7].

`C=Cc1c(C)nn(-c2ccccc2)c1-c1ccccc1`: the inhibition in assay [1] was 10%; in assay [2], 3.6%; in assay [3], 26%; in assay [4], 18%; in [6] it was 21%; in assay [7] it was 59%.

As for `CCc1c(CC(=O)O)nn(-c2ccccc2)c1-c1ccccc1`, the inhibition in assay [1] came to 0%; in [2], 0%; in assay [3], 13%; in assay [4] it was 0%; in assay [6] it was 0%; in assay [7], 14%.

Consider `C/N=C(/S)c1c(C)nn(-c2ccccc2)c1-c1ccccc1`, for which the inhibition in assay [1], in assay [2], in assay [3], in assay [4], in [6] and in assay [7] was 0% each time.

Consider `CCc1c(CCOC)nn(-c2ccccc2)c1-c1ccccc1`, for which the inhibition turned out to be 29% in [1]; 22% in assay [2]; 47% in assay [3]; 33% in assay [4]; 15% in assay [6]; 71% in assay [7].

With `CNC(=O)c1c(C)nn(-c2ccccc2)c1-c1ccccc1`, the inhibition in assay [1] came to 7%; in assay [2] it was 5%; in [3], 0%; in assay [4], 3%; in assay [6] it was 15%; in assay [7], 0%.

On to `COCc1c(C)nn(-c2ccccc2)c1-c1ccccc1`, for which the inhibition in [1] amounted to 0%; in assay [2], 0%; in [3] it was 18%; in assay [4] it was 14%; in assay [6], 0%; in [7], 50%.

Regarding `CCc1c(CC#N)nn(-c2ccccc2)c1-c1ccccc1`, the inhibition is 15% in [1]; 2% in [2]; 46% in assay [3]; 39% in assay [4]; 14% in assay [6]; 72% in assay [7].

For the compound `CCc1c(CC(N)=O)nn(-c2ccccc2)c1-c1ccccc1`, the inhibition turned out to be 18% in [1]; 12% in [2]; 29% in [3]; 39% in assay [4]; 16% in [6]; 52% in [7].

`CCc1cc(NCc2nc3c(Cl)ccc(Cl)c3o2)c(O)nc1C` [L-697661] gave a CC50 in assay [9] of more than 10000 nM. Further, the EC50 in assay [10] was less than 0.1 nM.

With `Cc1nn(-c2ccccc2)c(-c2ccccc2)c1C(C)C`, the inhibition in assay [1] was 18%; in [2], 0%; in assay [3], 8%; in [4], 6%; in [6] it was 0%; in assay [7] it was 13%.

With `Cc1nn(-c2ccccc2)c(-c2ccccc2)c1CC(=O)O`, the inhibition in [1] came to 0%; in assay [2], 0%; in [3] it was 0%; in [4], 3%; in assay [6], 0%; in assay [7] it was 0%.

Consider `Cc1nn(-c2ccccc2)c(-c2ccccc2)c1C`, for which the inhibition came out at 0% in [1]; 0% in assay [2]; 3% in assay [3]; 0% in assay [4]; 0% in assay [6]; 36% in assay [7].

For the compound `CCCc1c(C)nn(-c2ccccc2)c1-c1ccccc1`, the inhibition in assay [1] is 31%; in assay [2], 14%; in assay [3] it was 56%; in [4], 49%; in [6], 4%; in assay [7], 71%.

For the compound `Cc1ccnc2c1NC(=O)c1cccnc1N2C1CC1` [NEVIRAPINE], the CC50 in assay [9] was more than 10000 nM. Moreover, the EC50 in assay [10] amounted to 10 nM.

`CCc1c(C)nn(-c2ccccc2)c1-c1ccccc1`: the inhibition stood at 42% in assay [1]; 1% in [2]; 81% in assay [3]; 67% in assay [4]; 50% in [6]; 94% in [7]. The results for the IC50 in [5] and in assay [8] were 14500 nM and 520 nM, respectively.

In the case of `Cc1nn(-c2ccccc2)c(-c2ccccc2)c1C(=O)O`, the inhibition turned out to be 0% in [1]; 4% in assay [2]; 1% in [3]; 1% in assay [4]; 0% in assay [6]; 4% in [7].

As to `CCc1c(CCO)nn(-c2ccccc2)c1-c1ccccc1`, the inhibition in assay [1] was found to be 18%; in assay [2], 0%; in assay [3], 84%; in assay [4], 42%; in [6], 58%; in [7], 95%. The IC50 is more than 50000 nM in [5] and 650 nM in [8].

The values are drawn from ChEMBL document CHEMBL1133713, “Novel 1,5-diphenylpyrazole nonnucleoside HIV-1 reverse transcriptase inhibitors with enhanced activity versus the delavirdine-resistant P236L mutant: lead identification and SAR of 3- and 4-substituted derivatives” (J Med Chem, 2000).
